Laboratory results: patent publication US20250263459A1, “STABILIZED PACAP PEPTIDE” (SENJU PHARMACEUTICAL CO., LTD., priority 2019, published 2025)
Non-standard residues stand in square brackets, D forms with d. Residues, ends and D or L forms follow the SMILES beside them. Ala(1H-tetrazol-5-yl) = N[C@@H](Cc1nnn[nH]1)C(=O)O

Test: Stability test 1, sample preparation 5: survival rate of peptide in Tris buffer (pH 7.0) after storage, HPLC
Type: physicochemical
Conditions: 100 μM peptide; for survival rate after correction for water, 40° C. 4 week / survival rate after correction for water, 40° C. 8 week: Tris buffer pH 7.0, 40° C.; for survival rate after correction for water, 40° C. 4 week: 4 weeks (Table 13); for survival rate after correction for water, 40° C. 8 week: 8 weeks (Table 13); for survival rate after correction for water, 60° C. 1 week / survival rate after correction for water, 60° C. 2 week: Tris buffer pH 7.0, 60° C.; for survival rate after correction for water, 60° C. 1 week: 1 week (Table 13); for survival rate after correction for water, 60° C. 2 week: 2 weeks (Table 13)
Procedure: The peak area value for the peptide in the chromatogram was calculated, and the survival rate (survival rate before correction for water) was calculated using formula (2). The survival rate after correction for water was also calculated from the survival rate before correction for water using formula (3) to take into account the permeability of the container.
The prepared peptide solutions were incubated for 4 weeks or 8 weeks in a 40° C. thermostatic bath, and for one week or 2 weeks in a thermostatic bath at 60° C., to obtain stored samples.
The following gradient time was used only for peptide 30.

SMILES	survival rate after correction for water, 40° C. 4 week [%]	survival rate after correction for water, 40° C. 8 week [%]	survival rate after correction for water, 60° C. 1 week [%]	survival rate after correction for water, 60° C. 2 week [%]
CC(=O)N[C@@H](Cc1c[nH]cn1)C(=O)N[C@@H](CO)C(=O)N[C@@H](Cc1nnn[nH]1)C(=O)NCC(=O)N[C@@H](C)C(=O)N[C@@H](Cc1ccccc1)C(=O)N[C@H](C(=O)N[C@@H](Cc1nnn[nH]1)C(=O)N[C@@H](CO)C(=O)N[C@@H](Cc1ccc(O)cc1)C(=O)N[C@@H](CO)C(=O)N[C@@H](CCCNC(=N)N)C(=O)N[C@@H](Cc1ccc(O)cc1)C(=O)N[C@@H](CCCNC(=N)N)C(=O)N[C@@H](CCCCN)C(=O)N[C@@H](CCC(N)=O)C(=O)N[C@@H](CC(C)C)C(=O)N[C@@H](C)C(=O)N[C@H](C(=O)N[C@@H](CCCCN)C(=O)N[C@@H](CCCCN)C(=O)N[C@@H](Cc1ccc(O)cc1)C(=O)N[C@@H](CC(C)C)C(=O)N[C@@H](C)C(=O)N[C@@H](C)C(=O)N[C@H](C(=O)N[C@@H](CC(C)C)C(N)=O)C(C)C)C(C)C)[C@@H](C)O [Peptide 23, HSTzGA FTTzSY SRYRK QLAVK KYLAA VL] (Ac-HS[Ala(1H-tetrazol-5-yl)]GAFT[Ala(1H-tetrazol-5-yl)]SYSRYRKQLAVKKYLAAVL-NH2)	87.7	89.1	96.4	91.3
CC[C@H](C)[C@H](NC(=O)CNC(=O)[C@H](Cc1nnn[nH]1)NC(=O)[C@H](CO)NC(=O)[C@H](Cc1c[nH]cn1)NC(C)=O)C(=O)N[C@@H](Cc1ccccc1)C(=O)N[C@@H](C)C(=O)N[C@@H](Cc1nnn[nH]1)C(=O)N[C@@H](CO)C(=O)N[C@@H](Cc1ccc(O)cc1)C(=O)N[C@@H](CO)C(=O)N[C@@H](CCCNC(=N)N)C(=O)N[C@@H](Cc1ccc(O)cc1)C(=O)N[C@@H](CCCNC(=N)N)C(=O)N[C@@H](CCCCN)C(=O)N[C@@H](CCC(N)=O)C(=O)N[C@@H](CC(C)C)C(=O)N[C@@H](C)C(=O)N[C@H](C(=O)N[C@@H](CCCCN)C(=O)N[C@@H](CCCCN)C(=O)N[C@@H](Cc1ccc(O)cc1)C(=O)N[C@@H](CC(C)C)C(=O)N[C@@H](C)C(=O)N[C@@H](C)C(=O)N[C@H](C(=O)N[C@@H](CC(C)C)C(N)=O)C(C)C)C(C)C [Peptide 24, HSTzGI FATzSY SRYRK QLAVK KYLAA VL] (Ac-HS[Ala(1H-tetrazol-5-yl)]GIFA[Ala(1H-tetrazol-5-yl)]SYSRYRKQLAVKKYLAAVL-NH2)	90.5	83.5	99.5	91.1
CC[C@H](C)[C@H](NC(=O)CNC(=O)[C@H](Cc1nnn[nH]1)NC(=O)[C@H](C)NC(=O)[C@H](Cc1c[nH]cn1)NC(C)=O)C(=O)N[C@@H](Cc1ccccc1)C(=O)N[C@@H](C)C(=O)N[C@@H](Cc1nnn[nH]1)C(=O)N[C@@H](CO)C(=O)N[C@@H](Cc1ccc(O)cc1)C(=O)N[C@@H](CO)C(=O)N[C@@H](CCCNC(=N)N)C(=O)N[C@@H](Cc1ccc(O)cc1)C(=O)N[C@@H](CCCNC(=N)N)C(=O)N[C@@H](CCCCN)C(=O)N[C@@H](CCC(N)=O)C(=O)N[C@@H](CC(C)C)C(=O)N[C@@H](C)C(=O)N[C@H](C(=O)N[C@@H](CCCCN)C(=O)N[C@@H](CCCCN)C(=O)N[C@@H](Cc1ccc(O)cc1)C(=O)N[C@@H](CC(C)C)C(=O)N[C@@H](C)C(=O)N[C@@H](C)C(=O)N[C@H](C(=O)N[C@@H](CC(C)C)C(N)=O)C(C)C)C(C)C [Peptide 25, HATzGI FATzSY SRYRK QLAVK KYLAA VL] (Ac-HA[Ala(1H-tetrazol-5-yl)]GIFA[Ala(1H-tetrazol-5-yl)]SYSRYRKQLAVKKYLAAVL-NH2)	91.3	85.1	97.3	93.1
CC[C@H](C)[C@H](NC(=O)CNC(=O)[C@H](Cc1nnn[nH]1)NC(=O)[C@H](C)NC(=O)[C@H](Cc1c[nH]cn1)NC(C)=O)C(=O)N[C@@H](Cc1ccccc1)C(=O)N[C@H](C(=O)N[C@@H](Cc1nnn[nH]1)C(=O)N[C@@H](CO)C(=O)N[C@@H](Cc1ccc(O)cc1)C(=O)N[C@@H](CO)C(=O)N[C@@H](CCCNC(=N)N)C(=O)N[C@@H](Cc1ccc(O)cc1)C(=O)N[C@@H](CCCNC(=N)N)C(=O)N[C@@H](CCCCN)C(=O)N[C@@H](C)C(=O)N[C@@H](CC(C)C)C(=O)N[C@@H](C)C(=O)N[C@H](C(=O)N[C@@H](CCCCN)C(=O)N[C@@H](CCCCN)C(=O)N[C@@H](Cc1ccc(O)cc1)C(=O)N[C@@H](CC(C)C)C(=O)N[C@@H](C)C(=O)N[C@@H](C)C(=O)N[C@H](C(=O)N[C@@H](CC(C)C)C(N)=O)C(C)C)C(C)C)[C@@H](C)O [Peptide 26, HATzGI FITzSY SRYRK ALAVK KYLAA VL] (Ac-HA[Ala(1H-tetrazol-5-yl)]GIFT[Ala(1H-tetrazol-5-yl)]SYSRYRKALAVKKYLAAVL-NH2)	93.2	89.7	97.9	94.4
CC[C@H](C)[C@H](NC(=O)CNC(=O)[C@H](Cc1nnn[nH]1)NC(=O)[C@H](CO)NC(=O)[C@H](Cc1c[nH]cn1)NC(C)=O)C(=O)N[C@@H](Cc1ccccc1)C(=O)N[C@@H](C)C(=O)N[C@@H](Cc1nnn[nH]1)C(=O)N[C@@H](CO)C(=O)N[C@@H](Cc1ccc(O)cc1)C(=O)N[C@@H](CO)C(=O)N[C@@H](CCCNC(=N)N)C(=O)N[C@@H](Cc1ccc(O)cc1)C(=O)N[C@@H](CCCNC(=N)N)C(=O)N[C@@H](CCCCN)C(=O)N[C@@H](C)C(=O)N[C@@H](CC(C)C)C(=O)N[C@@H](C)C(=O)N[C@H](C(=O)N[C@@H](CCCCN)C(=O)N[C@@H](CCCCN)C(=O)N[C@@H](Cc1ccc(O)cc1)C(=O)N[C@@H](CC(C)C)C(=O)N[C@@H](C)C(=O)N[C@@H](C)C(=O)N[C@H](C(=O)N[C@@H](CC(C)C)C(N)=O)C(C)C)C(C)C [Peptide 28, HSTzGI FATzSY SRYRK ALAVK KYLAA VL] (Ac-HS[Ala(1H-tetrazol-5-yl)]GIFA[Ala(1H-tetrazol-5-yl)]SYSRYRKALAVKKYLAAVL-NH2)	94.1	89.8	98.6	90.9
CC[C@H](C)[C@H](NC(=O)CNC(=O)[C@H](Cc1nnn[nH]1)NC(=O)[C@H](CO)NC(=O)[C@H](Cc1c[nH]cn1)NC(C)=O)C(=O)N[C@@H](Cc1ccccc1)C(=O)N[C@@H](C)C(=O)N[C@@H](Cc1nnn[nH]1)C(=O)N[C@@H](CO)C(=O)N[C@@H](Cc1ccc(O)cc1)C(=O)N[C@@H](CO)C(=O)N[C@@H](CCCNC(=N)N)C(=O)N[C@@H](Cc1ccc(O)cc1)C(=O)N[C@@H](CCCNC(=N)N)C(=O)N[C@@H](CCCCN)C(=O)N[C@@H](CCC(N)=O)C(=O)N[C@@H](C)C(=O)N[C@@H](C)C(=O)N[C@H](C(=O)N[C@@H](CCCCN)C(=O)N[C@@H](CCCCN)C(=O)N[C@@H](Cc1ccc(O)cc1)C(=O)N[C@@H](CC(C)C)C(=O)N[C@@H](C)C(=O)N[C@@H](C)C(=O)N[C@H](C(=O)N[C@@H](CC(C)C)C(N)=O)C(C)C)C(C)C [Peptide 29, HSTzGI FATzSY SRYRK QAAVK KYLAA VL] (Ac-HS[Ala(1H-tetrazol-5-yl)]GIFA[Ala(1H-tetrazol-5-yl)]SYSRYRKQAAVKKYLAAVL-NH2)	86.1	77.4	96.3	91.9
